ChEMBL document CHEMBL4265882, “Tetrahydroquinoline and tetrahydroisoquinoline derivatives as potential selective PDE4B inhibitors” (Bioorg Med Chem Lett, 2018)

Columns and labels:
[1] = molecular target: 3',5'-cyclic-AMP phosphodiesterase 4B (Homo sapiens, UniProt Q07343); assay: Inhibition of human U937 cells-derived PDE4B using [3H]-cAMP as substrate after 30 mins
[2] = molecular target: 3',5'-cyclic-AMP phosphodiesterase 4D (Homo sapiens, UniProt Q08499); assay: Inhibition of human U937 cells-derived PDE4D using [3H]-cAMP as substrate after 30 mins
Homo sapiens = species on record: Homo sapiens; assay: Selectivity index, ratio of IC50 for human U937 cells-derived PDE4D to IC50 for human U937 cells-derived PDE4B
[3] = Inhibition of PDE4 in human PBMC assessed as reduction in LPS-stimulated TNFalpha release preincubated for 30 mins followed by LPS stimulation for 18 hrs by TR-FRET assay; type: cell-based
Mus musculus = assay: Anti-inflammatory activity in Swiss albino mouse model of sepsis assessed as inhibition of LPS-induced TNFalpha release at 10 mg/kg, po administered 30 mins prior to LPS challenge for 90 mins by ELISA relative to control; type: functional
Rattus norvegicus = assay: Anti-inflammatory activity in Sprague-Dawley rat model of LPS-induced asthma/COPD assessed as inhibition of neutrophilia in BALF at 10 mg/kg, po administered 30 mins prior to LPS challenge for 40 mins and measured after 6 hrs relative to control; type: functional

3',5'-cyclic-AMP phosphodiesterase 4B, sequence (Q07343 whole entry): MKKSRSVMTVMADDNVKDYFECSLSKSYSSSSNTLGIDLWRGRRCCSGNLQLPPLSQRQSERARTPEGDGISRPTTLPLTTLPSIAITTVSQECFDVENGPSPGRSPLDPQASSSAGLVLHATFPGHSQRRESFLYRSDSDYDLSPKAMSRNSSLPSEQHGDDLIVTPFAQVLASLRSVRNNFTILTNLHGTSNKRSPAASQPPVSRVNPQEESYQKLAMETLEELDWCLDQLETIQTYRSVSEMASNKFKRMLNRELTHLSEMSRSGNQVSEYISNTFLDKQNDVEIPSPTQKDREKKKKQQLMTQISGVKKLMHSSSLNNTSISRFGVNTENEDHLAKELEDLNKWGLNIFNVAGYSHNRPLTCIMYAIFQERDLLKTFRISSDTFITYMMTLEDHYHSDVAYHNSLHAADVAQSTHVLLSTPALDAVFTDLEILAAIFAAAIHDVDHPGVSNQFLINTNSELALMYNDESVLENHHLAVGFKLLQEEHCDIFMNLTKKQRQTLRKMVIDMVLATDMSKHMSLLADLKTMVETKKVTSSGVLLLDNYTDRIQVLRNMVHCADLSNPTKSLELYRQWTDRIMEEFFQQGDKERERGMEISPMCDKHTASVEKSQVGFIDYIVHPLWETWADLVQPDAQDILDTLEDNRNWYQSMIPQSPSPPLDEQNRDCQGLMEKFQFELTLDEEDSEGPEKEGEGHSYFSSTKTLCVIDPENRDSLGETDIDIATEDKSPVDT
3',5'-cyclic-AMP phosphodiesterase 4D, sequence (Q08499 whole entry): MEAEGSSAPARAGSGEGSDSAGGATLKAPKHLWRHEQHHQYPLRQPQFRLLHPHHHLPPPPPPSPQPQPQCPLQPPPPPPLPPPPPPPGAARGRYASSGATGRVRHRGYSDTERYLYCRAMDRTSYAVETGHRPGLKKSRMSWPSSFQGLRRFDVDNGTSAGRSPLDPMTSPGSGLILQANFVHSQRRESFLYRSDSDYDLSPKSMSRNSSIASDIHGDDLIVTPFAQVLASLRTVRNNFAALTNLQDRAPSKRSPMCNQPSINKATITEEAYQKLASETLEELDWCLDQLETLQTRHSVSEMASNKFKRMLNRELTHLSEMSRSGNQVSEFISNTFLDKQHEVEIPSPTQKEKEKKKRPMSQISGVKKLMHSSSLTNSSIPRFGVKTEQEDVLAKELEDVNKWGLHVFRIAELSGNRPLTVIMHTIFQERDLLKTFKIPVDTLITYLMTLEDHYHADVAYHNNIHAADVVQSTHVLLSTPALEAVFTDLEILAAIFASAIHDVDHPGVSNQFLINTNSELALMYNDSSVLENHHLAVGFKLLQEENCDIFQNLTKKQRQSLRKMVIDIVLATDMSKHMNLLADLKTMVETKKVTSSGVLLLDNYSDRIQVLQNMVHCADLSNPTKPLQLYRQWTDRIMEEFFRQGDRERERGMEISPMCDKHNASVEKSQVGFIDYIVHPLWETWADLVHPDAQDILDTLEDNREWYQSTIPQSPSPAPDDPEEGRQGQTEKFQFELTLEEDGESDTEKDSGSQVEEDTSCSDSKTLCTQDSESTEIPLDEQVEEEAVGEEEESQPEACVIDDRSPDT

SMILES | IC50 [1] [µM] | IC50 [2] [µM] | Ratio IC50 (Homo sapiens) | IC50 [3] [µM] | inhibition in vivo at 10 mg/kg (Mus musculus) [%] | inhibition in vivo at 10 mg/kg (Rattus norvegicus) [%]
O=C(c1ccc(-c2ccc(F)cc2F)o1)N1CCCc2ccccc21 | 2.6 | 15.6 | 6 | 16.2 | 39.6 | 34.1
O=C(c1ccc(-c2ccc(Cl)cc2)o1)N1CCCc2ccccc21 | 3.5 | 21.3 | 6.09 | 27.2 | – | –
O=C(c1ccc(-c2ccc(Br)cc2)o1)N1CCCc2ccccc21 | 46.8 | – | – | 131 | – | –
O=C(c1ccc(-c2ccccc2)o1)N1CCCc2ccccc21 | 70.9 | – | – | 142 | – | –
O=C(c1ccc(-c2ccccc2[N+](=O)[O-])o1)N1CCc2ccccc2C1 | 66.3 | – | – | 151 | – | –
COc1ccc(C2CNC(=O)C2)cc1OC1CCCC1 (stereo unspecified) [ROLIPRAM] | – | – | – | 18.9 | 42.9 | 34.2
COc1ccc(-c2ccc(C(=O)N3CCCc4ccccc43)o2)cc1 | 1.5 | 10.3 | 6.86 | 11.8 | 46.8 | 40.1
O=C(c1ccc(-c2ccccc2[N+](=O)[O-])o1)N1CCCc2ccccc21 | 66.9 | – | – | 128 | – | –
O=C(c1ccc(-c2c(F)cccc2F)o1)N1CCCc2ccccc21 | 15.2 | 81.3 | 5.34 | 89.3 | – | –
O=C(c1ccc(-c2ccc(F)cc2)o1)N1CCCc2ccccc21 | 6.1 | 40.3 | 6.6 | 22.1 | – | –
O=C(c1ccc(-c2ccc([N+](=O)[O-])cc2)o1)N1CCCc2ccccc21 | 12.1 | 77.2 | 6.38 | 46.8 | – | –
O=C(c1ccc(-c2cccc(F)c2)o1)N1CCCc2ccccc21 | 22.2 | – | – | 64.3 | – | –
O=C(c1ccc(-c2cccc([N+](=O)[O-])c2)o1)N1CCCc2ccccc21 | 30.9 | – | – | 62.3 | – | –
O=C(c1ccc(-c2ccccc2F)o1)N1CCCc2ccccc21 | 50.3 | – | – | 92.8 | – | –
O=C(c1ccc(-c2ccccc2Cl)o1)N1CCCc2ccccc21 | 41.6 | – | – | 101 | – | –
Cc1ccc(-c2ccc(C(=O)N3CCCc4ccccc43)o2)cc1 | 9.4 | 50.1 | 5.33 | 35.2 | – | –

More lines, main results first:

IC50 [1] [µM] | IC50 [2] [µM] | Ratio IC50 (Homo sapiens) | IC50 [3] [µM] | SMILES | inhibition in vivo at 10 mg/kg (Mus musculus) [%] | inhibition in vivo at 10 mg/kg (Rattus norvegicus) [%]
15.8 | 88.3 | 5.39 | 46.3 | O=C(c1ccc(-c2ccc([N+](=O)[O-])cc2)o1)N1CCc2ccccc2C1 | – | –
46.1 | – | – | 95.4 | O=C(c1ccc(-c2ccccc2F)o1)N1CCc2ccccc2C1 | – | –
51.6 | – | – | 121 | O=C(c1ccc(-c2ccccc2Cl)o1)N1CCc2ccccc2C1 | – | –
25.7 | – | – | 78.1 | O=C(c1ccc(-c2cccc(F)c2)o1)N1CCc2ccccc2C1 | – | –
3 | 18.1 | 6.03 | 17.1 | O=C(c1ccc(-c2ccc(F)cc2F)o1)N1CCc2ccccc2C1 | 30.8 | 29.5
2.6 | 10.2 | 3.92 | 13.6 | COc1ccc(-c2ccc(C(=O)N3CCc4ccccc4C3)o2)cc1 | 39.2 | 32.7
7.4 | 49.3 | 6.66 | 27.2 | O=C(c1ccc(-c2ccc(F)cc2)o1)N1CCc2ccccc2C1 | – | –
17.1 | 89.2 | 4.21 | 91.9 | O=C(c1ccc(-c2c(F)cccc2F)o1)N1CCc2ccccc2C1 | – | –
58.4 | – | – | 156 | O=C(c1ccc(-c2ccc(Br)cc2)o1)N1CCc2ccccc2C1 | – | –
21.1 | – | – | 57.1 | O=C(c1ccc(-c2cccc(Cl)c2)o1)N1CCc2ccccc2C1 | – | –
18.9 | 96.8 | 5.12 | 62.5 | O=C(c1ccc(-c2cccc(Cl)c2)o1)N1CCCc2ccccc21 | – | –
9.4 | 56.8 | 6.04 | 44.1 | Cc1ccc(-c2ccc(C(=O)N3CCc4ccccc4C3)o2)cc1 | – | –
79.6 | – | – | 188 | O=C(c1ccc(-c2ccccc2)o1)N1CCc2ccccc2C1 | – | –
39.9 | – | – | 72.5 | O=C(c1ccc(-c2cccc([N+](=O)[O-])c2)o1)N1CCc2ccccc2C1 | – | –
4.1 | 25.2 | 6.14 | 28.6 | O=C(c1ccc(-c2ccc(Cl)cc2)o1)N1CCc2ccccc2C1 | – | –
